One test has as its target T1, ovine COX-2 (Ovis aries, UniProt P79208).
T1 construct: purchased Cayman Chemical Co. 760111
T1 sequence (P79208 17-603): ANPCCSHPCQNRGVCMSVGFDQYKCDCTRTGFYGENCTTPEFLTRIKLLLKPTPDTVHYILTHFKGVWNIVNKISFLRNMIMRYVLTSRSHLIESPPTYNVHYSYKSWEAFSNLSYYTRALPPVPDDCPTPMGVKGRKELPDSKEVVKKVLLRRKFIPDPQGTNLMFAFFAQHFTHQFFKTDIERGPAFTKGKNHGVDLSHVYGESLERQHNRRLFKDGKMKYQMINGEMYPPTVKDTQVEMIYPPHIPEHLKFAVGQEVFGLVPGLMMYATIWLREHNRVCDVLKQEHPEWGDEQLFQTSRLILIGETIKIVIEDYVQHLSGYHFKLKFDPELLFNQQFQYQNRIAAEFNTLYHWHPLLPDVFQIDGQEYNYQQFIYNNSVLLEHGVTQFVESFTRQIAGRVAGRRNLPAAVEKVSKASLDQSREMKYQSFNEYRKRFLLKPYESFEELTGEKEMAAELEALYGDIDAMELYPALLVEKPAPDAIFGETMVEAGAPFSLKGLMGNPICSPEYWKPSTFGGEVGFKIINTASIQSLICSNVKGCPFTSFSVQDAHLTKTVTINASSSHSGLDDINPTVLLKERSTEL
The experiment in a line: Colorimetric COX (ovine) inhibitor screening assay, COX-2. In kind it is biochemical. An excerpt: (§1) The IC50 is the concentration of tested compounds calculated using the regression equation.

The target of the next test is T2, ovine COX-1 (Ovis aries, UniProt P05979).
T2 construct: purchased Cayman Chemical Co. 760111
T2 sequence (P05979 25-600): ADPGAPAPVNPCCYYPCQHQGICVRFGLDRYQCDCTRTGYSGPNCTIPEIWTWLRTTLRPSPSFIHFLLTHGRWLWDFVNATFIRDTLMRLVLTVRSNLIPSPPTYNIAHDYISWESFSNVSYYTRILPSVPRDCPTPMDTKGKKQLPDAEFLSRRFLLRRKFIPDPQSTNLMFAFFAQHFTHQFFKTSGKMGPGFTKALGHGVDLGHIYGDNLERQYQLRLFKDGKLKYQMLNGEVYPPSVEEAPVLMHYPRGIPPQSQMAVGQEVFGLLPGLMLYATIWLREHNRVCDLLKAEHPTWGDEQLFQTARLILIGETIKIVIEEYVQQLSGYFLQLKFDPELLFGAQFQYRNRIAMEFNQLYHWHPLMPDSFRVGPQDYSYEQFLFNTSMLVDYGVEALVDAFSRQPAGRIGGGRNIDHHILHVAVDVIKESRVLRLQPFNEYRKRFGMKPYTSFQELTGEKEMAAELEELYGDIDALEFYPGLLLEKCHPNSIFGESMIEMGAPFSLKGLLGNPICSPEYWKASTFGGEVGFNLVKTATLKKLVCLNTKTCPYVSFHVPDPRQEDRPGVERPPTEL
Description: Colorimetric COX (ovine) inhibitor screening assay, COX-1. In kind it is biochemical.
Text: as §1

Test [1] deals with carrageenan-induced rat paw edema. Description: Carrageenan-induced acute inflammation (rat paw edema). The format is in vivo, Wistar albino rats. Conditions: 10 mg/kg p.o. The procedure:
The acute anti-inflammatory activity of EAFMB was evaluated using the carrageenan-induced rat paw edema model. Experimental animals were randomly divided into four groups, with six animals in each group. Group I (the control group) received a vehicle (1% CMC). […] Groups III and IV (test group) were given EAFMB at 100 and 200 mg/kg p.o doses, respectively. The drugs were administered orally 1 h before the carrageenan injection. The 0.1 mL of freshly prepared carrageenan suspension was injected into the left hind paw of each rat. The paw volume was measured using a Plethysmometer (Ugo Basile 2470, Italy) at 1, 2, 3, 4, 5, and 6 h after carrageenan administration. The results were expressed as a percentage of the increase in paw swelling and a percentage of the inhibition of paw swelling compared to the initial hind paw thickness. % Increase in Paw Volume =Final Paw Volume at specific time point − Intial Paw Volume at 0 h/Intial Paw Volume at 0 h×100 % Inhibition=Paw Volume at of Control − Paw Volume of treated group/Intial Paw VoluPaw Volume at of Control me at 0 h×100

In test [2] the test system is CFA-induced chronic inflammation rats. The experiment in a line: Hematological parameters in CFA-induced chronic inflammation. In kind it is in vivo, Wistar rats. As to conditions: 10 mg/kg p.o. once daily for 21 days; blood on 21st day. The procedure:
(§2) The chronic anti-inflammatory activity of EAFMB was evaluated using the CFA-induced rat paw edema model. Wistar rats of either sex (180 to 200 g) were randomly divided into four groups, each comprising six animals. The control group (Group I) received only a vehicle (0.5% CMC, p.o.). […] Groups III to IV were treated with EAFMB (100 and 200 mg/kg, p.o., respectively) once daily for 21 days. On day 0, chronic inflammation, i.e., arthritis, was induced via injecting 0.1 mL of CFA containing 0.5% of dry heat-killed Mycobacterium tuberculosis in sterile paraffin oil into the sub-plantar region in the left hind paw of rats. The animals were evaluated for the following parameters: • % of a rise or inhibition of oedema
On the 21st day, blood was withdrawn through a retro-orbital plexus puncture from all treated groups under light ether anesthesia. The hematological parameters like hemoglobin content, total WBC count, ESR, and RBC were analyzed using Yumizen H550, HORIBA Hematology Analyzer, France.

The subject of test [3] is CFA-induced rat paw edema. Description: CFA-induced chronic inflammation (rat paw oedema). Conditions: 10 mg/kg p.o. once daily. The format is in vivo, Wistar rats. Here is the method:
as §2
After the CFA injection, the paw oedema was measured using a plethysmograph on day 0 and thereafter on days 4, 8, 14, and 21. The results were expressed as the percent rise in and percent inhibition of paw oedema as per the formulae mentioned in the acute inflammation study. • Hematological Parameters

The structures appear in SMILES notation. Like-named read-outs stand apart in the source and are kept apart here.

In the case of `Oc1cc(O)c2c(c1)OC(c1ccc(O)c(O)c1)C(O)C2` (stereo not shown) [Catechin, catechin], the results for the concentration for half-maximal inhibition (IC50) on ovine COX-2 and against ovine COX-1 were 50.4 µM and 9.02 µM, respectively.

Take `COc1ccc2c(c1)c(CC(=O)O)c(C)n2C(=O)c1ccc(Cl)cc1` [Indomethacin, indomethacin]: the “% Inhibition of paw oedema” value in test [1] (1 h after carrageenan) is listed as 27.78%; in test [1] (2 h after carrageenan), 56.84%; in test [1] (3 h after carrageenan), 57.97%; in test [1] (4 h after carrageenan) it was 59.39%; in test [1] (5 h after carrageenan) it was 54.37%; in test [1] (6 h after carrageenan) it was 48.18%. In addition, the “% Inhibition of paw oedema” value worked out at 46.78% in test [3] (4th day after CFA), 70.16% in test [3] (8th day after CFA), 84.48% in test [3] (14th day after CFA) and 87.35% in test [3] (21st day after CFA). Besides, the “% Rise in Paw Oedema” value in test [1] (1 h after carrageenan) is given as 14.28 ± 0.42%; in test [1] (2 h after carrageenan), 15.85 ± 0.41%; in test [1] (3 h after carrageenan), 18.19 ±0.36%; in test [1] (4 h after carrageenan), 21.01 ± 0.51%; in test [1] (5 h after carrageenan), 26.18 ± 0.63%; in test [1] (6 h after carrageenan), 31.2 ± 0.81%. The “% Rise in Paw Oedema” value in test [3] (4th day after CFA) came out at 41.92 ± 1.46%; in test [3] (8th day after CFA) it was 27.95 ± 1.58%; in test [3] (14th day after CFA) it was 14.77 ± 1.39%; in test [3] (21st day after CFA), 11.99 ± 0.89%. Moreover, the ESR in test [2] was 5.42 ± 0.31 mm/h. The molecule also returned a Hb in test [2] of 14.62 ± 0.27 g%. In test [2], the RBC was found to be 9.58 ± 0.27 millions/cubic mm. Also, the WBC in test [2] was 6.37 ± 0.36 *** 10^3/cubic mm.

With `O=C(O)C=Cc1ccc(O)cc1` [P-hydroxycinnamic acid, p-hydroxycinnamic acid], the IC50 (commonly the concentration that inhibits the measured activity by half) at ovine COX-2 (ovine COX-2, colorimetric, TMPD 590 nm, read-out: COX Inhibition (IC50) COX-2) is 246 µM; on ovine COX-1 (ovine COX-1, colorimetric, TMPD 590 nm, read-out: COX Inhibition (IC50) COX-1) it was 229 µM.
